Laboratory results as given in PMC8398766, “Do Small Molecules Activate the TrkB Receptor in the Same Manner as BDNF? Limitations of Published TrkB Low Molecular Agonists and Screening for Novel TrkB Orthosteric Agonists” (Pharmaceuticals, 2021).
Values joined by “and” are separate entries in the source; they are usually repeats but may differ in a detail not shown here. Identical values can stand only once. Like-named read-outs stand apart in the source and are kept apart here.

Experiments:
[1] = in vivo; format: in vivo, BALB/c mice
Experimental: The animals were obtained from the Center of Experimental Medicine (University of Bialystok, Bialystok, Poland) and housed under standard laboratory conditions. Mice had unlimited access to water and food. All the procedures were conducted according to the guidelines of the local ethical commission (appl no. 06/2019, perm. no 10/2019). […] Four animals per time point were sacrificed at 10 min, 30 min, 1 h, 2 h, and 4 h after per os administration and 5 min, 10 min, 30 min, 1 h, and 2 h after i.v. administration. The blood (0.5 mL) was collected by heart puncture using probes with anticoagulants (K2EDTA). Plasma samples were obtained by blood centrifugation (15 min, 3000× g at 23 °C). The whole brain was dissected from the skull and washed with cold 0.9% NaCl on ice. The left hemisphere was quickly frozen in liquid nitrogen and stored at −80 °C for further bioanalytical analysis. From the right hemisphere, the hippocampus and frontal cortex were isolated, weighed, and stored at −80 °C after freezing in liquid nitrogen. Isolated structures were homogenized in N-PER cocktail (10 μL for every 1 mg of tissue) using a hand homogenizer, and then processed as described in Section 4.3.3.
For bioanalytical evaluation, brain samples were homogenized in water (3 mL for every 1 g of brain tissue). Plasma and brain samples were then prepared by precipitating proteins and extracting analytes using acetonitrile with the addition of the internal standard: 150 μL of extraction solution was added to 50 μL of biological material, mixed for 1 min and centrifuged (12,900 RPM, 4 min, 4 °C), and the supernatant was collected for analysis. Standard solutions including calibration standards and quality control samples were prepared by spiking 45 μL of biological material with 5 μL of standard working solution, adding 150 μL of extraction solution, and then mixing, centrifuging, and collecting the supernatant for analysis. The concentrations of analytes in the plasma and brain samples were determined using a UPLC-MS/MS instrument (Agilent Technologies) and chromatographic columns (Agilent Zorbax Eclipse 50 × 2.1 mm; 1.7 μm).

[2] = target: T1, dopamine transporter (Homo sapiens, UniProt Q01959); assay: BioPrint Profile Panel; format: binding; settings: Antagonist, read-out: % of specific inhibition
T1 construct: purchased Eurofins Discovery (Cerep) BioPrint Profile Panel
From the text: (§1) The BioPrint® Profile Panel service offered by Eurofins Discovery (Poitiers, France) was chosen to perform selectivity analysis.

[3] = target: T2, H4 (Homo sapiens, UniProt Q9H3N8); assay: BioPrint Profile Panel; format: binding; settings: Agonist, Receptor, read-out: % of specific inhibition
T2 construct: purchased Eurofins Discovery (Cerep) BioPrint Profile Panel
From the text: as §1

[4] = test system: BZD; assay: BioPrint Profile Panel; format: binding; settings: 10 μM, Agonist, Ion Channel
From the text: as §1

[5] = target: T3, CCK2 (CCKB) (Homo sapiens, UniProt P32239); assay: BioPrint Profile Panel; format: binding; settings: Agonist, Receptor, read-out: % of specific inhibition
T3 construct: purchased Eurofins Discovery (Cerep) BioPrint Profile Panel
From the text: as §1

[6] = target: T4, NK2 (Homo sapiens, UniProt P21452); assay: BioPrint Profile Panel; format: binding; settings: Agonist, Receptor, read-out: % of specific inhibition
T4 construct: purchased Eurofins Discovery (Cerep) BioPrint Profile Panel
From the text: as §1

[7] = target: T5, CB1 (Homo sapiens, UniProt P21554); assay: BioPrint Profile Panel; format: binding; settings: Agonist, Receptor, read-out: % of specific inhibition
T5 construct: purchased Eurofins Discovery (Cerep) BioPrint Profile Panel
From the text: as §1

[8] = target: T6, 5-HT3 (Homo sapiens, UniProt P46098); assay: BioPrint Profile Panel; format: binding; settings: Antagonist, Ion Channel, read-out: % of specific inhibition
T6 construct: purchased Eurofins Discovery (Cerep) BioPrint Profile Panel
From the text: as §1

[9] = target: T7, APJ (apelin) (Homo sapiens, UniProt P35414); assay: BioPrint Profile Panel; format: binding; settings: Agonist, Receptor, read-out: % of specific inhibition
T7 construct: purchased Eurofins Discovery (Cerep) BioPrint Profile Panel
From the text: as §1

[10] = test system: kainate; assay: BioPrint Profile Panel; format: binding; settings: 10 μM; Agonist; Ion Channel
From the text: as §1

[11] = target: T8, RARα (Homo sapiens, UniProt P10276); assay: BioPrint Profile Panel; format: binding; settings: Agonist, Receptor, read-out: % of specific inhibition
T8 construct: purchased Eurofins Discovery (Cerep) BioPrint Profile Panel
From the text: as §1

[12] = target: T9, M3 (Homo sapiens, UniProt P20309); assay: BioPrint Profile Panel; format: binding; settings: Antagonist, Receptor, read-out: % of specific inhibition
T9 construct: purchased Eurofins Discovery (Cerep) BioPrint Profile Panel
From the text: as §1

[13] = target: T10, 5-HT2C (Homo sapiens, UniProt P28335); assay: BioPrint Profile Panel; format: binding; settings: Agonist, Receptor, read-out: % of specific inhibition
T10 construct: purchased Eurofins Discovery (Cerep) BioPrint Profile Panel
From the text: as §1

[14] = target: T11, β3 (Homo sapiens, UniProt P13945); assay: BioPrint Profile Panel; format: binding; settings: Antagonist, Receptor, read-out: % of specific inhibition
T11 construct: purchased Eurofins Discovery (Cerep) BioPrint Profile Panel
From the text: as §1

[15] = target: T12, MAO-A (Rattus norvegicus, UniProt P21396); assay: BioPrint Profile Panel; format: binding; settings: Antagonist, Non-Kinase Enzyme, read-out: % of specific inhibition
T12 construct: purchased Eurofins Discovery (Cerep) BioPrint Profile Panel
From the text: as §1

[16] = target: T13, MT1 (ML1A) (Homo sapiens, UniProt P48039); assay: BioPrint Profile Panel; format: binding; settings: Agonist, Receptor, read-out: % of specific inhibition
T13 construct: purchased Eurofins Discovery (Cerep) BioPrint Profile Panel
From the text: as §1

[17] = target: T14, CCR2 (Homo sapiens, UniProt P41597); assay: BioPrint Profile Panel; format: binding; settings: Agonist, Receptor, read-out: % of specific inhibition
T14 construct: purchased Eurofins Discovery (Cerep) BioPrint Profile Panel
From the text: as §1

[18] = test system: Na+ channel; assay: BioPrint Profile Panel; format: binding; settings: 10 μM; Antagonist; Ion Channel
From the text: as §1

[19] = target: T15, H2 (Homo sapiens, UniProt P25021); assay: BioPrint Profile Panel; format: binding; settings: Antagonist, Receptor, read-out: % of specific inhibition
T15 construct: purchased Eurofins Discovery (Cerep) BioPrint Profile Panel
From the text: as §1

[20] = target: T16, LXRβ (Homo sapiens, UniProt P55055); assay: BioPrint Profile Panel; format: binding; settings: Agonist, Receptor, read-out: % of specific inhibition
T16 construct: purchased Eurofins Discovery (Cerep) BioPrint Profile Panel
From the text: as §1

[21] = target: T17, CCK1 (Homo sapiens, UniProt P32238); assay: BioPrint Profile Panel; format: binding; settings: Agonist, Receptor, read-out: % of specific inhibition
T17 construct: purchased Eurofins Discovery (Cerep) BioPrint Profile Panel
From the text: as §1

[22] = target: T18, BB3 (Homo sapiens, UniProt P32247); assay: BioPrint Profile Panel; format: binding; settings: Agonist, Receptor, read-out: % of specific inhibition
T18 construct: purchased Eurofins Discovery (Cerep) BioPrint Profile Panel
From the text: as §1

[23] = test system: SKCa channel; assay: BioPrint Profile Panel; format: binding; settings: 10 μM; Antagonist; Ion Channel
From the text: as §1

[24] = target: T19, CRF1 (Homo sapiens, UniProt P34998); assay: BioPrint Profile Panel; format: binding; settings: Agonist, Receptor, read-out: % of specific inhibition
T19 construct: purchased Eurofins Discovery (Cerep) BioPrint Profile Panel
From the text: as §1

[25] = target: T20, A2B (Homo sapiens, UniProt P29275); assay: BioPrint Profile Panel; format: binding; settings: Antagonist, Receptor
T20 construct: purchased Eurofins Discovery (Cerep) BioPrint Profile Panel
From the text: as §1

[26] = test system: PCP; assay: BioPrint Profile Panel; format: binding; settings: 10 μM; Antagonist; Ion Channel
From the text: as §1

[27] = in vitro; settings: mouse, microsomes
[28] = male, BALB/c, mouse, in vivo, po, 50 mg/kg

T20 sequence (P29275 whole entry): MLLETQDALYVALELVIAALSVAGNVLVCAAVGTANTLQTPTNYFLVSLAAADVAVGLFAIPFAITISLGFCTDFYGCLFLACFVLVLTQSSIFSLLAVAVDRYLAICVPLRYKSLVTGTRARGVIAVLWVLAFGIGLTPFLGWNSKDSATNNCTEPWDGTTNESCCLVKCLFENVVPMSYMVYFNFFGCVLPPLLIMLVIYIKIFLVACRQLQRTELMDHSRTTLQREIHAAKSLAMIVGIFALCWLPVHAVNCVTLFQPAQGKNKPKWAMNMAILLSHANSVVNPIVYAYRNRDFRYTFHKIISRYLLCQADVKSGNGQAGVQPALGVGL
T9 sequence (P20309 whole entry): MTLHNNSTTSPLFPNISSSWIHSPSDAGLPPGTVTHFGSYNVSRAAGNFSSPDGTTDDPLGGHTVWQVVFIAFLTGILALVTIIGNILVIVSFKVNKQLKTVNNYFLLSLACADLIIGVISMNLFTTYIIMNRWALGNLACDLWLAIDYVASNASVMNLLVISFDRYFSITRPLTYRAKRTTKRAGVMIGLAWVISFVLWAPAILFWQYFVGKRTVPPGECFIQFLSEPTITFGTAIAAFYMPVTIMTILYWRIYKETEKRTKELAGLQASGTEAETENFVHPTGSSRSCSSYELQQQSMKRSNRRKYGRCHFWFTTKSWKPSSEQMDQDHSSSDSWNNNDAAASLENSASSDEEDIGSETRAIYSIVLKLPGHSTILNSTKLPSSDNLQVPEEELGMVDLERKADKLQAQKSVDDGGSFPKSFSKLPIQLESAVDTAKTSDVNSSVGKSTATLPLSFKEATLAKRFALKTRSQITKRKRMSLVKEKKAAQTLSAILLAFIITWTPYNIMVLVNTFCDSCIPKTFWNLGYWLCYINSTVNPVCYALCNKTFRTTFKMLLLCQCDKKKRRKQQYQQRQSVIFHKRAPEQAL
T15 sequence (P25021 whole entry): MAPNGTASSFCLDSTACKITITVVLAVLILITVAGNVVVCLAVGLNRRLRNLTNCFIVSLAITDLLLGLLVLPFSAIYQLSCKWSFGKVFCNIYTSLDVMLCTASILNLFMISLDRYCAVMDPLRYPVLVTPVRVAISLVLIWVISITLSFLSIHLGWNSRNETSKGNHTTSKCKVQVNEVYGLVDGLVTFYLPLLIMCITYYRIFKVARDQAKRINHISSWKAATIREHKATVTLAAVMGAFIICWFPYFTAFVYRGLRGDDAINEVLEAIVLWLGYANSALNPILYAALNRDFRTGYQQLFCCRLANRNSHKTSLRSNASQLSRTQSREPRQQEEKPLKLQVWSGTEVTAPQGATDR
T16 sequence (P55055 whole entry): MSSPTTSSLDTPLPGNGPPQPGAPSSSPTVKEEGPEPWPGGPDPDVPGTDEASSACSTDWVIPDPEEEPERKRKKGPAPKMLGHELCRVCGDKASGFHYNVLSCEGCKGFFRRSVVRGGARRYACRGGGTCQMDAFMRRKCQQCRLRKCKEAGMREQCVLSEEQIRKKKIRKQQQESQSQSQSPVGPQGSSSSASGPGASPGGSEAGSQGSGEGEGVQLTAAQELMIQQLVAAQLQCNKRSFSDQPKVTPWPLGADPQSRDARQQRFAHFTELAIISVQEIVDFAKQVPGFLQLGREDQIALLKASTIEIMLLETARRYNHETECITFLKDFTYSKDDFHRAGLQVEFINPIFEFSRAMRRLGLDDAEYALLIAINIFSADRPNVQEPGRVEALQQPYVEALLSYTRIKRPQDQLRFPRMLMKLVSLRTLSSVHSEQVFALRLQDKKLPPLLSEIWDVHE
T17 sequence (P32238 whole entry): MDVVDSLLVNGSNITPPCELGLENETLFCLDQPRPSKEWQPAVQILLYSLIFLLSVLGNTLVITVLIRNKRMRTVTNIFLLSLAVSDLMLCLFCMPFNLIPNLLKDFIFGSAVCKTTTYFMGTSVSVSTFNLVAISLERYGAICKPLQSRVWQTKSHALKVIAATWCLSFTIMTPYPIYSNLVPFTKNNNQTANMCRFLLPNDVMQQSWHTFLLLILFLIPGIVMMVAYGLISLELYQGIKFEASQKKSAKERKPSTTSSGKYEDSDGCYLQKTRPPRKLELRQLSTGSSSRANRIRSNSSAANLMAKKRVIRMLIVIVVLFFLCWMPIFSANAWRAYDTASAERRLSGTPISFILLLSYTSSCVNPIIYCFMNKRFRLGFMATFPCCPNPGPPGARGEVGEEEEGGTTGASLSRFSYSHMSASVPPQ
T7 sequence (P35414 whole entry): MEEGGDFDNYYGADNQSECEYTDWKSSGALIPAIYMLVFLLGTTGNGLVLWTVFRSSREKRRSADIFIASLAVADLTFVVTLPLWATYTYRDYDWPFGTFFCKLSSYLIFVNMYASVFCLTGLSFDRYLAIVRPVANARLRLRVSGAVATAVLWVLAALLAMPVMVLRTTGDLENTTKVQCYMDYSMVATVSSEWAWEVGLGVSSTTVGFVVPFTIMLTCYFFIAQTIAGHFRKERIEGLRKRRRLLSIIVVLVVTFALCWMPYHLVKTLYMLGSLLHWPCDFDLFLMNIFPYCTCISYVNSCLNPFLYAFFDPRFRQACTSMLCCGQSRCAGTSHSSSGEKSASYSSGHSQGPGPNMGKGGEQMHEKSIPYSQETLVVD
T3 sequence (P32239 whole entry): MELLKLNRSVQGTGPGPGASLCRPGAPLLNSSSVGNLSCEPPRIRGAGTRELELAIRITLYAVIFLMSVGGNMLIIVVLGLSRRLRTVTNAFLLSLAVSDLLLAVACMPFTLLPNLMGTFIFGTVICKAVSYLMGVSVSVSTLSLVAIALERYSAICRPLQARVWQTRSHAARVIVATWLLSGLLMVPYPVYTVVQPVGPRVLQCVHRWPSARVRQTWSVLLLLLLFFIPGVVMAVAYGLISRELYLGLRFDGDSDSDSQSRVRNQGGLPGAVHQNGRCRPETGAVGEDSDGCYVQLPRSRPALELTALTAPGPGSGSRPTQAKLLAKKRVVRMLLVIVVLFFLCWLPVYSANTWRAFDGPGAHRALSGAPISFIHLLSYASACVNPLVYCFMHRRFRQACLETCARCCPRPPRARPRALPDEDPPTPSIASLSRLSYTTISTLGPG
T10 sequence (P28335 33-458): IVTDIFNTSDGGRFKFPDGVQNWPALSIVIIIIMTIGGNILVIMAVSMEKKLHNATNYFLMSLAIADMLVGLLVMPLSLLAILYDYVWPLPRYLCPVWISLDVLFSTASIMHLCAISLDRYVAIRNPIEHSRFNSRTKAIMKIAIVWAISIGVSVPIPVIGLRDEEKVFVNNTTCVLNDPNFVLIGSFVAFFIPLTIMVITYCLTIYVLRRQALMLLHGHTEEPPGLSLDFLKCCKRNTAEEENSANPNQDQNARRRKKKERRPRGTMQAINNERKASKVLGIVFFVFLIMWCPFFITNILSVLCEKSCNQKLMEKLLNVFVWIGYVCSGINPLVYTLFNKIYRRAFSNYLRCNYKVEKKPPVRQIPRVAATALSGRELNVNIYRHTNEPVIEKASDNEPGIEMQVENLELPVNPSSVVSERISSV
T6 sequence (P46098 24-478): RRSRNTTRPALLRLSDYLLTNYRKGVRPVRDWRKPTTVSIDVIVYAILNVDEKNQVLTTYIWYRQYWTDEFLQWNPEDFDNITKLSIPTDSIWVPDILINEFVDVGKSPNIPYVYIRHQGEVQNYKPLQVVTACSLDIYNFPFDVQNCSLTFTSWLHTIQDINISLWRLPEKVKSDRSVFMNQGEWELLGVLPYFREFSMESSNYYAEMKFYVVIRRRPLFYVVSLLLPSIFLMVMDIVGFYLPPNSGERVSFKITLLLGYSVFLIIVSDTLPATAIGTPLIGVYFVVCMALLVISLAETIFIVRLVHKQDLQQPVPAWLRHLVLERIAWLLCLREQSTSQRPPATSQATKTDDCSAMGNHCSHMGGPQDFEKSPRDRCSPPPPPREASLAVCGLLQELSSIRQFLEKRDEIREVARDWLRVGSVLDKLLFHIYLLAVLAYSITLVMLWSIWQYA
T18 sequence (P32247 whole entry): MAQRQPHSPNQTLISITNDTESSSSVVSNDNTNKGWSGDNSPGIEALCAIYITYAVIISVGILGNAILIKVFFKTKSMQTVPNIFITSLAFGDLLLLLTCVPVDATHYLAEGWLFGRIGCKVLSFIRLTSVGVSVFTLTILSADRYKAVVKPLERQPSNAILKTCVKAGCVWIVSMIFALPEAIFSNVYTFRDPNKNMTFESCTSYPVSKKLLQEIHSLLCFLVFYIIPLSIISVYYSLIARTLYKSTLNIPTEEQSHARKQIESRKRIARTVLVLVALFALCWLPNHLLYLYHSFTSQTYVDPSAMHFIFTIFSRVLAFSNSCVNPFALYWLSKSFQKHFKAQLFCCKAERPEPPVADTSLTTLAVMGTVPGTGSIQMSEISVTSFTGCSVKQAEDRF
T13 sequence (P48039 whole entry): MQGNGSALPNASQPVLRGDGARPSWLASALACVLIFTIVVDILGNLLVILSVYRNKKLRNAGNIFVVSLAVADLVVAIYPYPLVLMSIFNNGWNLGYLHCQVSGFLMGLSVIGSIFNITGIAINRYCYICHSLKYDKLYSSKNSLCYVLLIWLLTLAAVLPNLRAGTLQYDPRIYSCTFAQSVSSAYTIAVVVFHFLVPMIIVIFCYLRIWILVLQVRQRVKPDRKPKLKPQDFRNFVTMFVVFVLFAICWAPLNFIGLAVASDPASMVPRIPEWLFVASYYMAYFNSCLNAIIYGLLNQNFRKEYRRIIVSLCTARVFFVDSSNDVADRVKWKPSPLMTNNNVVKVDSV

O=c1cc(-c2ccccc2)oc2c(O)c(O)ccc12 [7,8-DHF, 7,8-dihydroxyflavone]
Detection in plasma or brain samples ([1]; 7,8-DHF i.v. 1 mg/kg): not detectable | C brain, individual mice ([1]; 7,8-DHF i.v. 1mg/kg, 5min): < LLQ | C plasma, individual mice ([1]; 7,8-DHF i.v. 1mg/kg, 5min): < LLQ | C brain, individual mice ([1]; 7,8-DHF i.v. 1mg/kg, 10 min): < LLQ | C plasma, individual mice ([1]; 7,8-DHF i.v. 1mg/kg, 10 min): < LLQ | C brain, individual mice ([1]; 7,8-DHF i.v. 1mg/kg, 30 min): < LLQ | C plasma, individual mice ([1]; 7,8-DHF i.v. 1mg/kg, 30 min): < LLQ | C brain, individual mice ([1]; 7,8-DHF i.v. 1mg/kg, 1h): < LLQ | C plasma, individual mice ([1]; 7,8-DHF i.v. 1mg/kg, 1h): < LLQ | C brain, individual mice ([1]; 7,8-DHF i.v. 1mg/kg, 2h): < LLQ | C plasma, individual mice ([1]; 7,8-DHF i.v. 1mg/kg, 2h): < LLQ | C plasma, individual mice ([1]; 7,8-DHF p.o 50mg/kg, 1h): < LLQ | C brain, individual mice ([1]; 7,8-DHF p.o 50mg/kg, 4h): < LLQ | C plasma, individual mice ([1]; 7,8-DHF p.o 50mg/kg, 4h): < LLQ | Brain concentration relative to plasma ([1]; 7,8-DHF p.o. 50 mg/kg): 10 fold lower | Time at which plasma concentration fell under the detection limit ([1]; 7,8-DHF p.o. 50 mg/kg): 1 h | AUC [1, 28]: 20.9 ng·h/mL | Time of maximal plasma concentration [1, 28]: 10 min | Tmax [1, 28]: 9.6 min | Cmax ([1]; male, BALB/c, mouse, in vivo, po, 50 mg/kg, brain, 7,8-DHF p.o. 50 mg/kg, read-out: Cmax): 6.35 ng/g | Cmax ([1]; male, BALB/c, mouse, in vivo, po, 50 mg/kg, plasma, 7,8-DHF p.o. 50 mg/kg, read-out: Cmax): 77.4 ng/mL | Cmax ([1]; plasma, 7,8-DHF p.o. 50 mg/kg, 50 mg/kg): 72.42 ng/mL | inhibition at 10 µM [2]: 4% | inhibition at 10 µM [3]: -4% | % Inhibition of Control Specific Binding [4]: 71% and 70.6% | inhibition at 10 µM [5]: 15% | inhibition at 10 µM [6]: -2% | inhibition at 10 µM [7]: 1% | inhibition at 10 µM [8]: -2% | inhibition at 10 µM [9]: 4% | % of specific inhibition [10]: 26% | inhibition at 10 µM [11]: -16% | inhibition at 10 µM [12]: -7% | inhibition at 10 µM [13]: -4% | inhibition at 10 µM [14]: -25% | inhibition at 10 µM [15]: 35% | inhibition at 10 µM [16]: 20% | inhibition at 10 µM [17]: 4% | % of specific inhibition [18]: -11% | inhibition at 10 µM [19]: -37% | inhibition at 10 µM [20]: 49% | inhibition at 10 µM [21]: 21% | inhibition at 10 µM [22]: 11% | % of specific inhibition [23]: 4% | inhibition at 10 µM [24]: 5% | % Inhibition of Control Specific Binding ([25]; 10 μM): 78.3% | inhibition at 10 µM ([25]; read-out: % Inhibition of Control Specific Binding): 78% | % of specific inhibition [26]: -3% | microsomal CLint at 1 μM [27]: 21.3 µL/min/mg
